Source: the supplement of paper PMC13380429

Key:
Conditions in all cases: 72 h
Caco-2 [1] = test: relative viability EC50 (midpoint between 100% and the lowest measured viability); higher = less toxic
U2OS [2] = test: as above
Vero E6 [3] = test: as above
Calu-3 [4] = test: as above
HepG2 [5] = test: as above
Caco-2 [6] = test: cell viability relative to DMSO; higher = less toxic
U2OS [7] = test: as above
Vero E6 [8] = test: as above
Calu-3 [9] = test: as above
HepG2 [10] = test: as above
Caco-2 [11] = test: drug sensitivity score (DSS) for viability; higher = more toxic; extreme values may be limits of the assay
U2OS [12] = test: as above
Vero E6 [13] = test: as above
Calu-3 [14] = test: as above
HepG2 [15] = test: as above

SMILES	relative viability EC50 (Caco-2 [1]) [µM]	relative viability EC50 (U2OS [2]) [µM]	relative viability EC50 (Vero E6 [3]) [µM]	relative viability EC50 (Calu-3 [4]) [µM]	relative viability EC50 (HepG2 [5]) [µM]	cell viability (Caco-2 [6]; 1 nM) [%]	cell viability (Caco-2 [6]; 10 nM) [%]	cell viability (Caco-2 [6]; 100 nM) [%]	cell viability (Caco-2 [6]; 1000 nM) [%]	cell viability (Caco-2 [6]; 10000 nM) [%]	cell viability (U2OS [7]; 1 nM) [%]	cell viability (U2OS [7]; 10 nM) [%]	cell viability (U2OS [7]; 100 nM) [%]	cell viability (U2OS [7]; 1000 nM) [%]	cell viability (U2OS [7]; 10000 nM) [%]	cell viability (Vero E6 [8]; 1 nM) [%]	cell viability (Vero E6 [8]; 10 nM) [%]	cell viability (Vero E6 [8]; 100 nM) [%]	cell viability (Vero E6 [8]; 1000 nM) [%]	cell viability (Vero E6 [8]; 10000 nM) [%]	cell viability (Calu-3 [9]; 1 nM) [%]	cell viability (Calu-3 [9]; 10 nM) [%]	cell viability (Calu-3 [9]; 100 nM) [%]	cell viability (Calu-3 [9]; 1000 nM) [%]	cell viability (Calu-3 [9]; 10000 nM) [%]	cell viability (HepG2 [10]; 1 nM) [%]	cell viability (HepG2 [10]; 10 nM) [%]	cell viability (HepG2 [10]; 100 nM) [%]	cell viability (HepG2 [10]; 1000 nM) [%]	cell viability (HepG2 [10]; 10000 nM) [%]	drug sensitivity score (Caco-2 [11])	drug sensitivity score (U2OS [12])	drug sensitivity score (Vero E6 [13])	drug sensitivity score (Calu-3 [14])	drug sensitivity score (HepG2 [15])
CC(C)(C)C(=O)/C(=N/c1ccc(Cl)cc1)NNc1ccc(Cl)cc1	> 10	> 10	> 10	> 10	> 10	82.3	91.6	91.4	96.6	83.9	96.7	107	102	103	94	97.5	99.3	102	97.2	107	97.8	107	98.8	98.6	102	105	95	95.5	95.3	97.6	0	0	0	0	0
Cc1ncc(C[n+]2csc(CCOP(=O)(O)OP(=O)(O)O)c2C)c(N)n1 [thiamine-pyrophosphate]	> 10	> 10	> 10	> 10	> 10	95.4	88.1	106	95.5	104	95.7	95.1	104	95.9	98.2	91.8	101	92.6	96.1	110	98.5	98	104	94	103	95.7	112	97.4	110	134	0	0	0	0	0
Cn1c2c(c3ccccc31)CCNCC2	> 10	> 10	> 10	> 10	> 10	109	98.6	102	97.9	97.1	100	94.4	98.3	95.9	104	102	103	104	108	99.6	96.7	101	99.3	103	96.8	93	98.3	93.1	103	98.4	0	0	0	0	0
CC(C)NC(=O)c1ccc(C#Cc2ccncc2)cn1	> 10	> 10	> 10	> 10	> 10	101	90.3	99.1	92.4	95.4	95.1	98.3	97.1	104	102	100	96.1	92.2	94.5	101	90.1	95.8	99.9	99	114	104	102	98.1	96.7	98.1	0	0	0	0	0
C=CCSCC1Nc2cc(Cl)c(S(N)(=O)=O)cc2S(=O)(=O)N1 (stereo not given) [althiazide]	> 10	> 10	> 10	> 10	> 10	90.1	96.8	93	90.9	89.8	96.1	95.5	100	96.9	100	97.8	97.2	98.8	104	112	111	94.8	112	112	101	109	116	94.2	102	107	0	0	0	0	0
C[N+]1(CCCCC[N+]2(C)CCCC2)CCCC1 [pentolinium]	> 10	> 10	> 10	> 10	> 10	99	109	124	107	88.7	94.2	98.7	100	99.2	102	96.3	105	102	101	108	97.1	91.2	110	94	88.1	79.4	99.3	96	112	97.6	0	0	0	0.3	0
CO/N=C(\C(=O)N[C@@H]1C(=O)N2C(C(=O)[O-])=C(C[n+]3ccn4ncccc43)CS[C@H]12)c1nsc(N)n1 [cefozopran]	> 10	> 10	> 10	> 10	> 10	93.7	97.9	96.5	96.7	99	97	97.7	102	107	104	92.7	99.9	94	98.7	109	102	104	93.6	104	118	89.7	90	88.8	104	102	0	0	0	0	0
CC1(CN)Cc2ccccc2C1 [ORG-9768]	> 10	> 10	> 10	> 10	> 10	93	87.1	101	93.9	110	99.5	98	101	102	102	91.2	96.8	94	98.5	109	109	105	95.4	102	96.9	98	109	96.3	112	102	0	0	0	0	0
Nc1ccn([C@H]2CC[C@@H](CO)O2)c(=O)n1 [zalcitabine]	> 10	> 10	> 10	> 10	> 10	94.2	99.2	90.6	93.5	98.7	101	105	94.2	97.2	99.1	102	104	100	99.1	90.9	99.2	91.1	103	101	106	101	93.1	98.3	94.8	98.9	0	0	0	0	0
Cc1nc2ccc(NC(=O)Nc3ccnc4cccnc34)cc2o1	> 10	> 10	> 10	> 10	> 10	94.9	92.2	98	89.6	76.1	101	93	99.3	96.4	96.4	97.6	98.8	90.9	102	93.2	102	103	94.5	92.7	90.3	98.9	102	94.7	92.8	80.7	1.6	0	0	0	0.8
CN[C@@H]1[C@@H](O)[C@@H](O[C@@H]2[C@@H](O)[C@H](O[C@H]3O[C@H](CN)[C@@H](O)[C@H](O)[C@H]3O)[C@@H](N)C[C@H]2NC(=O)[C@@H](O)CN)OC[C@]1(C)O [isepamicin]	> 10	> 10	> 10	> 10	> 10	89.7	97	89.1	98	91.8	97.6	100	94.6	99.1	102	91.5	98.3	96.6	95.5	101	96.4	90.7	91.5	92.6	99.3	98.8	95.8	96.6	107	103	0	0	0	0	0
CC(C)c1ccc2c(c1)CC[C@H]1[C@](C)(CN)CCC[C@]21C [lylamine]	3.03	2.9	3.01	3.37	3.64	109	103	106	98.4	16.7	103	98.5	103	97.1	19.4	108	108	105	97.8	3.1	96	98	97.8	104	1.4	104	109	92.3	110	0	4.8	4.9	5.7	5.2	4.9
c1ccc2c(c1)CN1CCCC1=N2 [desoxypeganine]	> 10	> 10	> 10	> 10	> 10	97.6	113	105	94.7	97.9	98.7	101	93	94.5	99.3	98.4	96.5	105	98	95.2	95.1	111	99.6	89.2	107	89.7	75.1	91.6	91.1	96.8	0	0	0	0	0
CCC(N)C(O)c1ccc(O)c(O)c1 (stereo not given) [ethylnorepinephrine]	> 10	> 10	> 10	> 10	> 10	93.7	95.5	103	89.9	95.1	100	94.8	98.4	98.4	99.3	93.9	102	104	107	112	101	99.4	108	91.9	104	100	110	98.7	109	102	0	0	0	0	0
CC[N+](C)(CC)CCC[n+]1c(-c2ccccc2)c2cc(N)ccc2c2ccc(N)cc21 [propidium-iodide]	> 10	> 10	> 10	> 10	> 10	91.3	99.2	93.1	95.3	75.7	99.2	103	98.4	99.8	83.7	96.8	99.5	98.3	96	95.7	100	99.6	102	104	92.3	93.8	104	90.8	90.4	80.1	1.5	0.3	0	0	1.2
CC(C)N(CCC(C(N)=O)(c1ccccc1)c1ccccn1)C(C)C (stereo not given) [disopyramide]	> 10	> 10	> 10	> 10	> 10	94.4	104	101	102	91.8	103	102	100	99.7	95.7	102	101	96	97.7	97.5	101	93.2	96.3	96.9	89.7	105	86.8	94.7	91.9	99.4	0	0	0	0	0
NS(=O)(=O)c1cc(C2(O)NC(=O)c3ccccc32)ccc1Cl (stereo not given) [chlorthalidone]	> 10	> 10	> 10	> 10	> 10	107	84.5	96.8	98.6	99	98.4	97.4	97.3	96.8	102	97.4	102	98.8	103	97.3	96.7	92	107	86.6	97.4	97.5	106	97.7	107	99.6	0	0	0	0	0
C[C@]12C=CC(=O)C=C1CC[C@@H]1[C@@H]2[C@@H](O)C[C@@]2(C)[C@H]1CC[C@]2(O)C(=O)COP(=O)(O)O [prednisolone-sodium-phosphate]	> 10	> 10	> 10	> 10	> 10	99.6	89.5	98.4	92.8	91.7	95.1	105	97.9	90.8	97	102	103	108	101	89.6	97.4	92.7	101	82.5	106	100	100	104	99.2	100	0	0	0	0	0
COc1cc(CN(CCN)C(=O)c2cccs2)ccc1OCc1ccccc1 [M8-B]	> 10	> 10	> 10	> 10	> 10	89.5	98.4	101	95.6	89.1	95.1	97.6	102	95.7	95.4	94.8	94.1	97.2	98	102	103	89.1	108	99.7	98.5	99.8	96.5	91.1	110	96.2	0.1	0	0	0	0
CCC(COC(=O)c1cc(OC)c(OC)c(OC)c1)(c1ccccc1)N(C)C (stereo not given) [trimebutine]	> 10	> 10	> 10	> 10	> 10	94.5	93.1	95.4	91.3	88.4	94.8	101	102	97.2	92.6	98.2	102	98.4	100	98.2	97.5	104	100	95.6	100	99.8	104	103	96.7	96.9	0	0	0	0	0
CNC(=O)N(C)N=O [nitrosodimethylurea]	> 10	> 10	> 10	> 10	> 10	85.7	106	94.7	86.9	116	99.8	95.7	95.1	98	108	93.6	92.4	95.4	86.3	97.9	111	103	100	91.6	109	88.6	100	103	100	97.7	0	0	0	0	0
C=CCn1c(=O)c2cnc(Nc3ccc(N4CCN(C)CC4)cc3)nc2n1-c1cccc(C(C)(C)O)n1 [MK-1775]	0.399	0.49	0.981	0.218	0.466	106	99.4	96.1	35.4	25.9	102	95.7	97.6	21.3	5.8	100	94.7	94.1	57.4	14.2	108	93.4	70.8	50.9	28.8	99	89.5	91.2	33.3	10.2	12.4	14.7	9.7	13.1	13.8
CNCCCN1c2ccccc2CCc2ccccc21 [desipramine]	> 10	> 10	> 10	> 10	> 10	98.9	111	102	94.3	90.6	104	102	104	98.1	97.1	107	103	97	102	99.9	104	101	104	109	96.2	119	114	105	113	89	0	0	0	0	0
